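Protocol summary: plate cells (96-well), add compound at 5 concentrations, incubate 48 h, interpolate endpoints linearly. The concentration for 50% growth inhibition is given as GI50.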 Active and inactive are the calls of the source. No stated cut-off is given here; in the data, active = GI50 up to about 1.1 µM and inactive = higher.
Tests used:
Test in all cases: inhibition of tumour cell growth, NCI panel, 48 h
COLO 205 = test system: COLO 205
SF-295 = test system: SF-295
RPMI-8226 = test system: RPMI-8226
U-251 = test system: U-251
TK-10 = test system: TK-10
MCF7 = test system: MCF7
HOP-62 = test system: HOP-62
SK-MEL-28 = test system: SK-MEL-28
786-0 = test system: 786-0
SK-OV-3 = test system: SK-OV-3
SN12C = test system: SN12C
HCT-15 = test system: HCT-15
HOP-92 = test system: HOP-92
SNB-19 = test system: SNB-19
SF-268 = test system: SF-268
HCT-116 = test system: HCT-116
OVCAR-5 = test system: OVCAR-5
SNB-75 = test system: SNB-75
NCI/ADR-RES = test system: NCI/ADR-RES
CCRF-CEM = test system: CCRF-CEM

SMILES | GI50 (COLO 205) | GI50 (SF-295) | GI50 (RPMI-8226) | GI50 (U-251) | GI50 (TK-10) | GI50 (MCF7) | GI50 (HOP-62) | GI50 (SK-MEL-28) | GI50 (786-0) | GI50 (SK-OV-3) | GI50 (SN12C) | GI50 (HCT-15) [µM] | GI50 (HOP-92) | GI50 (SNB-19) | GI50 (SF-268) | GI50 (HCT-116) | GI50 (OVCAR-5) | GI50 (SNB-75) | GI50 (NCI/ADR-RES) | GI50 (CCRF-CEM)
CCC1c2[nH]c3ccccc3c2C[C@H]2C(=O)NC(C)C(=O)N12 (stereo partly drawn) | > 100 µM (inactive) | > 100 µM (inactive) | > 100 µM (inactive) | > 100 µM (inactive) | > 100 µM (inactive) | > 100 µM (inactive) | > 100 µM (inactive) | > 100 µM (inactive) | > 100 µM (inactive) | > 100 µM (inactive) | > 100 µM (inactive) | > 100 | > 100 µM (inactive) | > 100 µM (inactive) | > 100 µM (inactive) | > 100 µM (inactive) | > 100 µM (inactive) | 23.7 µM (inactive) | > 100 µM (inactive) | –
Cc1cc2cc3c(O)nc(O)nc3nc2cc1C | > 100 µM (inactive) | > 100 µM (inactive) | > 100 µM (inactive) | > 100 µM (inactive) | > 100 µM (inactive) | > 100 µM (inactive) | > 100 µM (inactive) | > 100 µM (inactive) | > 100 µM (inactive) | > 100 µM (inactive) | > 100 µM (inactive) | > 100 | > 100 µM (inactive) | > 100 µM (inactive) | > 100 µM (inactive) | > 100 µM (inactive) | > 100 µM (inactive) | 27.6 µM (inactive) | > 100 µM (inactive) | –
Nc1n[nH]c(Nc2ccc(Cl)cc2)c1P(=O)(c1ccccc1)c1ccccc1 | 49.4 µM (inactive) | 18.6 µM (inactive) | 39.5 µM (inactive) | 30.3 µM (inactive) | 30.1 µM (inactive) | 29 µM (inactive) | 20.2 µM (inactive) | 25.7 µM (inactive) | – | 30.8 µM (inactive) | – | 28.6 | 20.8 µM (inactive) | 26.7 µM (inactive) | 15.2 µM (inactive) | – | 18.8 µM (inactive) | 21.6 µM (inactive) | 20.7 µM (inactive) | 28.6 µM (inactive)
CCCCCOc1ccc(/C=N\c2ccc(CCc3ccc(/N=C/c4ccc(OCCCCC)cc4)cc3)cc2)cc1 | > 100 µM (inactive) | > 100 µM (inactive) | > 100 µM (inactive) | > 100 µM (inactive) | – | > 100 µM (inactive) | > 100 µM (inactive) | > 100 µM (inactive) | – | > 100 µM (inactive) | > 100 µM (inactive) | > 100 | > 100 µM (inactive) | > 100 µM (inactive) | > 100 µM (inactive) | > 100 µM (inactive) | > 100 µM (inactive) | > 100 µM (inactive) | > 100 µM (inactive) | > 100 µM (inactive)
N#Cc1c(N)c2c(c(-c3ccccc3)c1-c1ccccc1)C(=O)N(O)C2=O | 20.2 µM (inactive) | 38.7 µM (inactive) | 42.4 µM (inactive) | 94.6 µM (inactive) | 91.4 µM (inactive) | 46.1 µM (inactive) | – | 40.7 µM (inactive) | 47.1 µM (inactive) | – | > 100 µM (inactive) | 70 | 64.1 µM (inactive) | 37.8 µM (inactive) | > 100 µM (inactive) | 19.5 µM (inactive) | 63 µM (inactive) | 34 µM (inactive) | > 100 µM (inactive) | 29.8 µM (inactive)
O=c1c(O)c(-c2cc(O)c(O)cc2O)oc2cc(O)c(C3OC(CO)C(O)C(O)C3O)c(O)c12 (stereo not drawn) | – | > 100 µM (inactive) | > 100 µM (inactive) | > 100 µM (inactive) | > 100 µM (inactive) | > 100 µM (inactive) | > 100 µM (inactive) | > 100 µM (inactive) | > 100 µM (inactive) | > 100 µM (inactive) | > 100 µM (inactive) | > 100 | > 100 µM (inactive) | > 100 µM (inactive) | > 100 µM (inactive) | > 100 µM (inactive) | > 100 µM (inactive) | 45.1 µM (inactive) | > 100 µM (inactive) | –
O=C(CCN1CCCCC1)C(=Cc1ccccc1)C(=O)CCN1CCCCC1 | 27.7 µM (inactive) | > 100 µM (inactive) | 20.8 µM (inactive) | > 100 µM (inactive) | – | 35.8 µM (inactive) | > 100 µM (inactive) | > 10 µM (inactive) | 7.28 µM (inactive) | > 100 µM (inactive) | > 74.8 µM (inactive) | 64.9 | 42.8 µM (inactive) | > 100 µM (inactive) | > 78.9 µM (inactive) | 42.3 µM (inactive) | > 100 µM (inactive) | > 100 µM (inactive) | 74.5 µM (inactive) | 17.2 µM (inactive)
CC(=O)OCC1OC(n2c3c(cc(C#N)c2=S)CCCCC3)C(OC(C)=O)C(OC(C)=O)C1OC(C)=O (stereo not drawn) | > 100 µM (inactive) | > 100 µM (inactive) | > 100 µM (inactive) | > 100 µM (inactive) | > 100 µM (inactive) | > 100 µM (inactive) | > 100 µM (inactive) | > 100 µM (inactive) | > 100 µM (inactive) | – | > 100 µM (inactive) | > 100 | > 100 µM (inactive) | > 100 µM (inactive) | > 100 µM (inactive) | > 100 µM (inactive) | > 100 µM (inactive) | 99.1 µM (inactive) | > 100 µM (inactive) | > 100 µM (inactive)
C[C@H]1CC[C@@H]2[C@@H](C)[C@H]3[C@H](C[C@H]4[C@@H]5CC=C6C[C@@H](O)CC[C@]6(C)[C@H]5CC[C@]34C)N2C1 | 16.3 µM (inactive) | 40.6 µM (inactive) | 26.3 µM (inactive) | 31.8 µM (inactive) | 33 µM (inactive) | 38.5 µM (inactive) | 31.4 µM (inactive) | 47.1 µM (inactive) | 30.4 µM (inactive) | > 100 µM (inactive) | > 100 µM (inactive) | > 100 | 12.6 µM (inactive) | 97.9 µM (inactive) | > 100 µM (inactive) | 36.4 µM (inactive) | > 100 µM (inactive) | – | 54.7 µM (inactive) | 32.5 µM (inactive)
CN(C)c1ccc(/C=C/c2cc(-c3ccccc3)[n+](C)n2-c2ccccc2)cc1 | 0.094 µM (active) | 0.614 µM (active) | 0.0221 µM (active) | 0.0573 µM (active) | 1.7 µM (inactive) | 0.157 µM (active) | 0.54 µM (active) | 0.597 µM (active) | 0.43 µM (active) | 0.401 µM (active) | 0.293 µM (active) | 3.61 | 0.467 µM (active) | 0.0865 µM (active) | 0.431 µM (active) | 0.125 µM (active) | 1.6 µM (inactive) | – | 4.5 µM (inactive) | 0.035 µM (active)
CC#CC#C/C(=C/C=CC(=O)OC)SC | > 100 µM (inactive) | > 100 µM (inactive) | – | > 100 µM (inactive) | > 100 µM (inactive) | > 100 µM (inactive) | – | > 100 µM (inactive) | > 100 µM (inactive) | > 100 µM (inactive) | > 100 µM (inactive) | > 100 | > 100 µM (inactive) | – | > 100 µM (inactive) | > 100 µM (inactive) | > 100 µM (inactive) | 39.4 µM (inactive) | > 100 µM (inactive) | > 10 µM (inactive)
Cc1ccc(CC(Cc2ccccc2C)C(=O)O)c(C(=O)O)c1 (stereo not drawn) | > 100 µM (inactive) | > 100 µM (inactive) | > 100 µM (inactive) | > 100 µM (inactive) | > 100 µM (inactive) | > 100 µM (inactive) | > 100 µM (inactive) | > 100 µM (inactive) | > 100 µM (inactive) | – | > 100 µM (inactive) | > 100 | > 100 µM (inactive) | > 100 µM (inactive) | > 100 µM (inactive) | > 100 µM (inactive) | > 100 µM (inactive) | > 100 µM (inactive) | > 100 µM (inactive) | > 100 µM (inactive)
COc1cc2c(cc1OC)[C@H](C)N1CCc3cc(OC)c(OC)cc3[C@@H]1C2 | > 100 µM (inactive) | > 100 µM (inactive) | > 100 µM (inactive) | > 100 µM (inactive) | > 100 µM (inactive) | > 100 µM (inactive) | – | > 100 µM (inactive) | > 100 µM (inactive) | > 100 µM (inactive) | > 100 µM (inactive) | > 100 | > 100 µM (inactive) | > 100 µM (inactive) | > 100 µM (inactive) | > 100 µM (inactive) | > 100 µM (inactive) | > 100 µM (inactive) | > 100 µM (inactive) | > 100 µM (inactive)
CON(C)C(=O)C(C)N(Cc1ccccc1)Cc1ccccc1 (stereo not drawn) | – | > 100 µM (inactive) | 42.8 µM (inactive) | > 100 µM (inactive) | > 100 µM (inactive) | 58.3 µM (inactive) | 23.3 µM (inactive) | > 100 µM (inactive) | > 100 µM (inactive) | 66.8 µM (inactive) | > 10 µM (inactive) | 34.8 | > 100 µM (inactive) | > 100 µM (inactive) | > 100 µM (inactive) | 50.2 µM (inactive) | > 100 µM (inactive) | 36.9 µM (inactive) | 45.5 µM (inactive) | 50.8 µM (inactive)
C/C1=C\[C@@H](O)C(=O)/C=C/C=C\c2csc(n2)[C@@H](C)NC(=O)C[C@@]2(CC1)[S+]([O-])SC(=O)[C@]2(C)O (stereo partly drawn) [LEINAMYCIN] | 0.0149 µM (active) | 0.0446 µM (active) | 0.00445 µM (active) | 0.0454 µM (active) | 0.0266 µM (active) | 0.000499 µM (active) | 0.13 µM (active) | 0.0214 µM (active) | 0.00391 µM (active) | 0.138 µM (active) | 0.0203 µM (active) | 0.0134 | 0.00228 µM (active) | 0.284 µM (active) | 0.0272 µM (active) | – | 0.104 µM (active) | 0.0252 µM (active) | 0.0137 µM (active) | 0.00105 µM (active)
